In brackets after ≈: the same amount, converted by molar mass.
Experiments:
[1] = biological target: T1, human acetylcholinesterase (hAChE) (Homo sapiens, UniProt P22303); set-up: method as in PMID 36007662; conditions: earlier report; cited from earlier work
[2] = biological target: T1, human acetylcholinesterase (hAChE); assay: biochemical; conditions: triplicate; galantamine positive control; IC50 exceeding 40 μM considered inactive; read-out: hAChE inhibitory activity IC50 ± SD
Protocol: hAChE inhibition assays were performed according to a reported protocol, with galantamine as the positive control. All assays were performed in triplicate.

[3] = tested on: vancomycin-resistant Enterococci (VRE); assay: Anti-VRE assay, standard broth microdilution method in 96-well plates; type: cell-based; conditions: Enterococcus, ampicillin positive control, tests performed three times, read-out: MIC against vancomycin-resistant Enterococci (VRE)
Protocol: As described in earlier studies, the antibacterial activities against vancomycin-resistant Enterococci (VRE) were achieved by a standard broth microdilution method in 96-well plates. Ampicillin (AMP) was a positive control, and all tests were performed three times.

T1 sequence (P22303 32-614): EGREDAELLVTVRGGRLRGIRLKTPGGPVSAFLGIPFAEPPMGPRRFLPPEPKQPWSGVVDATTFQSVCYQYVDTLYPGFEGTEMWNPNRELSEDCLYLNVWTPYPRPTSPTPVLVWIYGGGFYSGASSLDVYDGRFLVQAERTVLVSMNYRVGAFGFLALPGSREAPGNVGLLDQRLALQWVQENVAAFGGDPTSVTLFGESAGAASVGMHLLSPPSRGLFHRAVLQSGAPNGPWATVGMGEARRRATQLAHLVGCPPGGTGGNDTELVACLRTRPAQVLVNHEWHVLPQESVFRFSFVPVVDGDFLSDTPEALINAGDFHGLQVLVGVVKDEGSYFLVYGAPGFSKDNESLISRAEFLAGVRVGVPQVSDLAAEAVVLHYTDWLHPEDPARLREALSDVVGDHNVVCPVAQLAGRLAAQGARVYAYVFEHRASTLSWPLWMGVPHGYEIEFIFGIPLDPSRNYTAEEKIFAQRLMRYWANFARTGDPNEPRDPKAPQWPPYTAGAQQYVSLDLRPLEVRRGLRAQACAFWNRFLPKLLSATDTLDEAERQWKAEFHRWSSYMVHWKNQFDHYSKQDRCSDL

SMILES	inhibitory activity against human acetylcholinesterase (hAChE), in words [1]	IC50 [2]	MIC [3]
CCC(C)C(=O)c1c(O)cc2c(c1O)C(CC(C)C)C1=C(O2)C(C)(C)C(=O)C(C)(C)C1=O (stereo not shown) [phloroglucinol 10, rhodotomentodimer D]	exhibited inhibitory activity	–	–
CCC(C)C1C2=C(Oc3c(C(=O)C(C)C)c(O)cc(O)c31)C(C)(C)C(=O)C(C)(C)C2=O (stereo not shown) [phloroglucinol 3, rhodotomentodimer I]	–	2.89 ± 0.3 µM	–
CCC(C)C(=O)c1c(O)cc(O)c2c1OC1=C(C(=O)C(C)(C)C(=O)C1(C)C)C2C(C)CC (stereo not shown) [phloroglucinol 7, rhodotomentodimer M]	–	2.41 ± 0.22 µM	–
CC(C)C(=O)c1c(O)cc2c(c1O)C(C(C)C)C1=C(O2)C(C)(C)C(=O)C(C)(C)C1=O (stereo not shown) [phloroglucinol 11, isomyrtucommulone B]	–	1.36 ± 0.16 µM	1 µg/mL (≈ 2.41 µM)
CC(C)C[C@H]1C2=C(O[C@]3(C)[C@H]1C[C@]1(C(C)C)C[C@@H]13)C(C)(C)C(=O)C(C)(C)C2=O [phloroglucinol 1, rhodotomentodione F]	–	> 40 µM	–
CCC(C)C(=O)c1c(O)cc2c(c1O)C(C(C)CC)C1=C(O2)C(C)(C)C(=O)C(C)(C)C1=O (stereo not shown) [phloroglucinol 8, rhodotomentodimer N]	–	3.35 ± 0.41 µM	–
CC(C)CC(=O)c1c(O)cc(O)c2c1OC1=C(C(=O)C(C)(C)C(=O)C1(C)C)C2C(C)C (stereo not shown) [phloroglucinol 14, callistenone A]	–	1.23 ± 0.11 µM	> 32 µg/mL
CC(C)C(=O)c1c(O)cc(O)c2c1OC1=C(C(=O)C(C)(C)C(=O)C1(C)C)C2C(C)C (stereo not shown) [phloroglucinol 13, myrtucommulone B]	–	1.04 ± 0.03 µM	> 32 µg/mL
CCC(C)C(=O)c1c(O)cc(O)c2c1OC1=C(C(=O)C(C)(C)C(=O)C1(C)C)C2C(C)C (stereo not shown) [phloroglucinol 5, rhodotomentodimer K]	–	2.46 ± 0.33 µM	–
CC1(C)S[C@@H]2[C@H](NC(=O)[C@H](N)c3ccccc3)C(=O)N2[C@H]1C(=O)O [ampicillin, reference compound]	–	–	2 µg/mL (≈ 5.72 µM)
CC(C)CC(=O)c1c(O)cc2c(c1O)C(CC(C)C)C1=C(O2)C(C)(C)C(=O)C(C)(C)C1=O (stereo not shown) [phloroglucinol 12, rhodomyrtone]	–	1.52 ± 0.14 µM	1 µg/mL (≈ 2.26 µM)
CC1(C)C(=O)C2=C(OC3(O)C(=C2)C(=O)C(C)(C)C(=O)C3(C)C)C(C)(C)C1=O (stereo not shown) [phloroglucinol 2, rhodotomentodimer H]	–	> 40 µM	–
CCC(C)C(=O)c1c(O)cc2c(c1O)C(C(C)C)C1=C(O2)C(C)(C)C(=O)C(C)(C)C1=O (stereo not shown) [phloroglucinol 9, myrciarone B]	–	2.86 ± 0.3 µM	–
CCC(C)C(=O)c1c(O)cc(O)c2c1OC1=C(C(=O)C(C)(C)C(=O)C1(C)C)C2C(C)CC (stereo not shown) [phloroglucinol 6, rhodotomentodimer L]	–	2.62 ± 0.21 µM	–
CCC(C)C(=O)c1c(O)cc(O)c2c1OC1=C(C(=O)C(C)(C)C(=O)C1(C)C)C2C(C)C (stereo not shown) [phloroglucinol 4, rhodotomentodimer J]	–	2.39 ± 0.25 µM	–

From paper PMC12779811, “Diverse phloroglucinols with hAChE inhibitory and anti-VRE effects from Rhodomyrtus tomentosa fruits” (Natural Products and Bioprospecting, 2026)
